# Experiment: gradient 5% acetonitrile 3 min, to 50% in 2 min, to 85% in 15 min, held 3 min, 100 µL/min
# Details: column: Zorbax Extend-C18 2.1 x 50 mm; eluents: water / acetonitrile, 0.1% formic acid
# In short: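 Data were gathered over 3 months by HPLC coupled to a quadrupole time-of-flight mass spectrometer, operated in positive and negative ionization mode. Mixtures of ~100 pure standards ran on a Zorbax Extend-C18 column (2.1 × 50 mm, 1.8 μm) at 100 μL/min, with water and acetonitrile each containing 0.1% formic acid and dead and dwell volumes of 40 μL and 900 μL. Retention time was read from adduct peaks picked by computer and checked manually.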
row,SMILES,RP-LC retention time
1,COc1ccc(C(=O)N2C[C@@H]3C[C@H](NC(=O)c4cccs4)[C@H]2C3)cn1,679 s
2,CN(C)S(=O)(=O)c1ccc2c(c1)N(CC(=O)Nc1ccccn1)C(=O)C1CCCCN21 (stereo not drawn),795 s
3,CCN1CCCn2nc(C3CCN(C(=O)c4cccnc4SC)CC3)cc2C1=O,649 s
4,O=C1CC(/C=C/c2ccccc2)Cc2nc(N3CCN(c4ncccn4)CC3)ncc21 (stereo not drawn),1130 s
5,Cc1ccc(Nc2nc(N3CCN(c4ncccn4)CC3)nc3c2C(=O)CCC3)cc1,1220 s
6,CCOc1cc(CNc2ccc3[nH]c(=O)[nH]c3c2)cc(Cl)c1OCC,700 s
7,CNC(=O)N1CCCC(c2nc(C(C)C)no2)CCNC(=O)CC1 (stereo not drawn),606 s
8,Cc1csc(-c2cc(S(=O)(=O)NCc3ccco3)c(C)n2C)n1,864 s
9,O=C(NCCCS(=O)(=O)N1CCN(c2ncccn2)CC1)c1ccncc1,568 s
10,COc1cccc(CNC(=O)c2cc3cn(C4CC4)cc3s2)c1OC,507 s
11,CCc1ccc(NC(=O)C2CCN(S(=O)(=O)c3cn(C)cn3)CC2)cc1,734 s
12,Cc1cccc2nnc(N3CCC(C(=O)NCC4CCCCC4)CC3)n12,709 s
13,O=C1CCCC(=O)N1CCS(=O)(=O)NCC1(c2ccccc2)CCOCC1,678 s
14,CCn1ccc2cc(S(=O)(=O)N3CCCC(C(=O)NC4CCCCC4)C3)ccc21 (stereo not drawn),1010 s
15,O=C1Nc2cc(C(=O)N3CCN(c4cccc(Cl)c4)CC3)ccc2N2CCCCC12 (stereo not drawn),975 s
16,CCCCN1C(=O)C(NC(=O)CCc2ccccc2)(C(F)(F)F)C(C(=O)OC)=C1C (stereo not drawn),1030 s
17,O=C(CN1CCCc2nc(C3CC3)ncc2C1=O)NCc1ccco1,663 s
18,O=C(Nc1nnc(C2=COCCO2)o1)c1ccco1,559 s
19,Cc1ccc(N2CCC(NC(=O)c3ccc(Cl)s3)C2=O)cc1 (stereo not drawn),888 s
20,Cc1cccc2c1CCN(C(=O)c1ccco1)[C@@H]2C,931 s
21,C=CCNC(=O)C1CCCN(C(=O)Nc2ccc(NC(=O)Nc3ccccc3)cc2)C1 (stereo not drawn),707 s
22,CCNC(=O)N1CCCC(c2cccc(C(=O)NCc3ccc(F)cc3F)c2)C1 (stereo not drawn),804 s
23,COc1ccc(/C=C/c2ccc3c(c2)OCCO3)cc1O,868 s

row,SMILES,RP-LC retention time
1,Cc1c(Cl)cccc1NC(=O)Cn1nc(C(=O)N2CCCCC2)c2ccccc21,917 s
2,O=C(NCC1CCCO1)C1CCCN(c2ccc(Sc3ccc(Br)cc3)nn2)C1 (stereo not drawn),793 s
3,CCOC(=O)N1CCN(C(=O)CCc2csc(NC(=O)c3ccc(F)cc3)n2)CC1,713 s
4,Cc1ccccc1NC(=O)Nc1ccc2nnc(C)n2c1,662 s
5,CC1Oc2ccc(S(=O)(=O)N3CCC(C(=O)NCCc4ccccc4)CC3)cc2NC1=O (stereo not drawn),792 s
6,CCCc1ccc(S(=O)(=O)N2CCC(n3cnnc3C)CC2)cc1,767 s
7,Cc1ccc(-c2csc(NC(=O)CC(C)C)n2)c(C)c1,1090 s
8,COCc1nncn1C1CCN(S(=O)(=O)c2ccc(C(F)(F)F)cc2)CC1,764 s
9,Cc1cccc(C)c1NC(=O)N1CCC(c2cc(N)on2)CC1,660 s
10,CCc1cccc(NC(=O)Cn2nc3c(N(C)C4CCCCC4)nccn3c2=O)c1,851 s
11,Cc1cc2c(F)c(Oc3ncnn4cc(OC[C@@H](C)OC(=O)[C@H](C)N)c(C)c34)ccc2[nH]1,746 s
12,CCn1ccc(C(=O)N2CCCn3nc(-c4cccs4)cc3C2)n1,748 s
13,CCn1ccc2cc(S(=O)(=O)N3CCCN(C(=O)NC4CCCCC4)CC3)ccc21,936 s
14,CCc1cc(C(=O)Nc2ccc(C)cc2)nc2ccnn12,1060 s
15,Cc1csc(-c2cc(S(=O)(=O)N3CCCCCC3)c(C)n2C)n1,1100 s
16,CN(C)c1cc(OC2CCN(C(=O)c3c[nH]c4ccccc34)C2)ncn1 (stereo not drawn),604 s
17,O=C(Nc1ccc2c(c1)OCO2)c1cn(-c2cc(N3CCCC3)ncn2)cn1,808 s
18,O=C(Cc1ccc(F)cc1)N1CCCCC1c1nncn1CC1CC1 (stereo not drawn),735 s
19,CCn1cnc(S(=O)(=O)N2CCCC(C(=O)Nc3ccc(Br)c(C)c3)C2)c1 (stereo not drawn),889 s
20,O=C(Nc1ccc(F)cc1)C1CCCN(S(=O)(=O)c2c[nH]c(C(=O)N3CCCC3)c2)C1 (stereo not drawn),787 s
21,Cc1ccc(S(=O)(=O)NCC2CN(C(C)C)CC23CCCCC3)c(C)c1 (stereo not drawn),738 s
22,COC(=O)C1=C(CN2CCN(C)CC2)NC(=O)NC1c1cc(C)ccc1C (stereo not drawn),614 s

# Second part, the molecule after the results:
row,RP-LC retention time,SMILES
1,1010 s,Clc1ccc(Cc2nc(-c3cccc(-c4ccn[nH]4)c3)no2)cc1
2,634 s,CCNC(=O)Cc1nnc(-c2ccc(OC)cc2)o1
3,647 s,COc1cccc(-n2c(CN3CCN(c4ccccn4)CC3)nc3ccc([N+](=O)[O-])cc3c2=O)c1
4,1330 s,Cc1ccc(-c2coc(-c3ccc(NC(=O)Cc4cccs4)cc3)n2)c(C)c1
5,960 s,Cc1cccc(-n2c(=O)c3c(cc(C)n3C)n(CC(=O)Nc3cccc(Cl)c3C)c2=O)c1
6,1030 s,Cc1ccc(N2CN(CC(=O)N3CCCc4ccccc43)S(=O)(=O)c3cccnc32)cc1
7,854 s,CN1C(=O)C(C)(C(=O)Nc2ccccc2Cl)Oc2cccnc21 (stereo not drawn)
8,982 s,COc1ccc(-c2noc(C3CC(=O)N(c4ccc(C)c(Cl)c4)C3)n2)c(OC)c1 (stereo not drawn)
9,708 s,CCC(=O)Nc1ccc(-n2cnc(C(=O)N3CCN(c4ccccc4)CC3)c2)nc1
10,1030 s,COc1cccc(N2C(=O)C3N=NN(Cc4nc(-c5ccc(C)c(C)c5)no4)C3C2=O)c1 (stereo not drawn)
11,1000 s,COc1ccc(Cn2c(=O)c3sccc3n(Cc3nc(-c4ccccc4)no3)c2=O)cc1
12,853 s,Cc1ccc(NC(=O)NC2CCN(c3ccccc3)C2=O)cc1C (stereo not drawn)
13,795 s,CCC(C)NC(=O)CSc1nc(N2CCc3ccccc3C2)nc2ccccc12 (stereo not drawn)
14,756 s,COc1cccc(CNC(=O)Cn2ccc3ccc(-c4nnc(C)o4)cc32)c1
15,981 s,COCCn1cc2c3c(cccc31)CN(C(=O)Nc1ccccc1C(F)(F)F)CC2
16,795 s,COc1ccc(-c2cn3ccn(-c4ccc(Br)cc4)c(=O)c3n2)cc1OC
17,708 s,Fc1ccc(Cc2nc(-c3ccnc(N4CCCC4)c3)no2)cc1
18,957 s,Cc1nc(C)c(C(=O)N(Cc2ccccn2)c2nc3c(Cl)cccc3s2)s1
19,983 s,CC(=O)c1ccc(S(=O)(=O)N(Cc2cccs2)Cc2cccn2C)cc1
20,740 s,COc1ccc(C2Cn3cnc(C(=O)N4CCC(C(=O)Nc5ccc(C)cc5C)CC4)c3CO2)cc1 (stereo not drawn)
21,1050 s,Cc1cc(NC(=O)c2csc(-c3cn(C)c4ncccc34)n2)ccc1F
22,766 s,COc1ccc(NC(=O)N2CCc3c(c(-c4nnc(-c5ccc(F)cc5)o4)nn3C)C2)cc1OC

row,RP-LC retention time,SMILES
1,1330 s,Cc1cccc(-c2noc(CSc3nc4cc5c(cc4c(=O)n3Cc3ccccc3)OCO5)n2)c1
2,1050 s,O=c1c2oc3ccccc3c2ncn1Cc1nc(-c2ccc(OC(F)(F)F)cc2)no1
3,590 s,COc1cc2c(cc1OC)C(C(=O)N1CCN(c3ccccn3)CC1)C1c3ccccc3CCN1C2=O (stereo not drawn)
4,882 s,CCN1C(=O)c2cccnc2Sc2cc(NC(=O)COc3ccc(F)c(F)c3)ccc21
5,965 s,CCn1cc(-c2nc(C)c(C(=O)Nc3ccccc3)s2)c2cccnc21
6,789 s,O=C(Nc1ccccc1)N1C[C@@H]2C(=O)N(CCc3ccccc3)C(=O)[C@@H]2C1
7,716 s,COc1ccc(NC(=O)NC2CCN(c3ccc(F)cc3)C2=O)c(OC)c1 (stereo not drawn)
8,590 s,CCOC(=O)CCNC(=O)N1CCN(Cc2nc3cccnc3n2-c2ccccc2)CC1
9,892 s,CCCC(=O)N1CC(=O)Nc2ccc(Br)cc2C1c1ccccc1 (stereo not drawn)
10,675 s,CCOC(=O)C1=C(CN2CCN(Cc3ccc4c(c3)OCO4)CC2)NC(=O)NC1c1ccc(F)cc1 (stereo not drawn)
11,1060 s,COC(=O)C(C)Oc1cc(O)c2c(=O)cc(-c3ccccc3)oc2c1 (stereo not drawn)
12,864 s,Cc1cccc(C)c1NC(=O)Cn1c(=O)n(-c2ccccc2)c(=O)c2c1cc(C)n2C
13,1060 s,O=C(Nc1cccc(-c2noc(C3CCC3)n2)c1)c1cccs1
14,881 s,CCn1cc(S(=O)(=O)N2CCC(c3noc(-c4ccccc4)n3)C2)cn1 (stereo not drawn)
15,724 s,O=C(Cn1cc(-c2nnc(-c3ccco3)o2)c2ccccc21)N1CCCC1
16,674 s,O=C(Nc1c(-c2ccccc2)nc2ccc(Cl)cn12)c1ccco1
17,846 s,CCc1nc(OCC(=O)Nc2ccccc2C(F)(F)F)c2ccccc2n1
18,1140 s,COc1ccccc1/C=C1\Cc2ccccc2C1=O
19,646 s,Cc1ccc(F)c2c(=O)c3c([nH]c12)CCN(CC(=O)Nc1ccc(Cl)cc1)C3
20,739 s,Cc1ccc(NC(=O)Nc2cccc(-c3ccc(N4CCOCC4)nn3)c2)cc1F
21,858 s,O=C(O)Cc1sc(Nc2ccccc2)nc1-c1ccccc1
